In patent publication US5120713A, “Treatment of obesity with an alpha-2-adrenergic agonist and a growth hormone releasing peptide” (Applied Research Systems ARS Holding N.V., priority 1990, dated 1992):
No end group written: not given here.

Legend:
[1] = system: plasma GH; assay: Plasma GH response (RIA) in prepubertal obese children after clonidine, galanin and/or GHRH; assay type: in vivo, human (obese children); conditions: for Mean Peak GH Response: Obese patient group, Clo 150 micrograms/m^2 oral at time 0, GHRH 1 microgram/kg i.v. bolus at 60 min, Gal 50 pmol/kg/min infusion 55-120 min
Method: Eight prepubertal obese children (boys), aged 10 to 12.4 years, all in good general health and taking no medication, participated in the study with informed consent (parent and child). All had height within normal percentiles for chronological age. Bone age was advanced 6-24 months in all but one patient and weight was above the […] for chronological age in all cases. The children were tested six times at random intervals ranging from 7 to 10 days, each patient serving as their own control. Studies commenced at 0900 h after an overnight fast and bed rest and thirty minutes after the insertion of a nontrombogenic catheter for blood withdrawal in a forearm vein. The study consisted of administering clonidine (Catapresan, Boehringer Ingelheim, Spain) orally at 150 micrograms/m^2 at time 0 followed by administering GHRH (GRF 1-29, Serono, Spain) as an intravenous bolus at 1 microgram/kg at time 60 minutes. The control experiments consisted of administering on separate occasions either clonidine at time 0 or GHRH at time 60 minutes. Blood samples for GH assays (RIA, BioMerieux, France) were taken at 15 minute intervals for two hours. The mean intra-assay coefficient of variation was 5.9, 4.6 and 3.9% at mean GH concentrations of 1.5, 8 and 24 micrograms/L respectively. To avoid inter-assay variations, all samples from a subject were run in the same assay.
(§1) Galanin (Gal) was administered alone, with clonidine (Clo) and with GHRH by infusion as a saline solution at 50 pmol/kg/min through a Millex-GY (0.22 um, Millipore) filter at time 55 to 120 minutes in all experiments. Also, for comparison purposes a similar group of short stature children diagnosed as having constitutional growth delay (CGD) were administered GHRH, galanin plus GHRH, and clonidine plus GHRH (previous study) by the same procedure.

[2] = system: plasma GH; assay: Plasma GH response in short children with constitutional growth delay (CGD); assay type: in vivo, human (short stature children
Method: as §1

[3] = system: GH; conditions: normal children and adolescents; reported (ref 9); cited from earlier work

## GHRH: growth hormone releasing hormone, GRF 1-29 (Serono, Spain) (YADAIFTNSYRKVLGQLSARKLLQDIMSR; ends and bridges not checked; UniProt P01286 32-60, looked up, fragment)
[1]
  Mean Peak GH Response: 9.6 ± 2 µg/L
[1]; obese children
  mean peak (maximal) plasma GH level: 9.6 ± 2 µg/L
  plasma GH response (in words): slight but significant increase in plasma GH
  time of GH peak after administering GHRH: 45 min
[2]; CGD patient group, same procedure
  Mean Peak GH Response: 17.1 ± 4.3 µg/L
[2]; control group of short children with constitutional growth delay
  mean GH peak: 17.1 ± 4.3 µg/L
[3]
  GHRH-induced GH response: 25.8 ± 5.6 µg/L

## Clc1cccc(Cl)c1NC1=NCCN1 [Clo, 2-(2,6-dichloroanilino)-2-imidazoline]
[1]
  Mean Peak GH Response: 2.9 ± 0.8 µg/L
[1]; obese children
  mean peak (maximal) plasma GH level: 2.9 ± 0.8 µg/L
  plasma GH response (in words): did not produce any significant plasma GH increase
[1]; obese children, single responding patient, at time 105 min
  maximal GH value in one patient: 6.5 µg/L
